Experimental data reported in ChEMBL document CHEMBL5634143, “Development of teixobactin analogues containing hydrophobic, non-proteogenic amino acids that are highly potent against multidrug-resistant bacteria and biofilms” (Eur J Med Chem, 2023).
≈ marks a conversion by molar mass, not a printed value.

What was measured:
Format in all cases: functional
[1] = test system: Staphylococcus epidermidis; experiment: Antibacterial activity against Staphylococcus epidermidis 12228 assessed as inhibition of bacterial growth
Staphylococcus aureus [2] = experiment: Antibacterial activity against methicilin-resistant Staphylococcus aureus 42412 assessed as inhibition of bacterial growth
Enterococcus faecium [3] = experiment: Antibacterial activity against Vancomycin-resistant Enterococcus faecium 1014 assessed as inhibition of bacterial growth
[4] = test system: Staphylococcus saprophyticus; experiment: Antibacterial activity against Staphylococcus saprophyticus ATCC 15305 assessed as inhibition of bacterial growth
Staphylococcus aureus [5] = experiment: Antibacterial activity against methicilin-resistant Staphylococcus aureus ATCC 700699 assessed as inhibition of bacterial growth
Bacillus subtilis = experiment: Antibacterial activity against Bacillus subtilis ATCC 6633 assessed as inhibition of bacterial growth
[6] = test system: Staphylococcus saprophyticus; experiment: Antibacterial activity against Staphylococcus saprophyticus ATCC BAA 750 assessed as inhibition of bacterial growth
[7] = test system: Staphylococcus saprophyticus; experiment: Antibacterial activity against Staphylococcus saprophyticus ATCC 49907 assessed as inhibition of bacterial growth
Staphylococcus aureus [8] = experiment: Antibacterial activity against methicilin-resistant Staphylococcus aureus 21455 assessed as inhibition of bacterial growth
Enterococcus faecium [9] = experiment: Antibacterial activity against Vancomycin-resistant Enterococcus […] ATCC 700802 assessed as inhibition of bacterial growth
Staphylococcus aureus [10] = experiment: Antibacterial activity against methicilin-resistant Staphylococcus aureus 1003 assessed as inhibition of bacterial growth
Staphylococcus aureus [11] = experiment: Antibacterial activity against Staphylococcus aureus 4299 assessed as inhibition of bacterial growth
Staphylococcus aureus [12] = experiment: Antibacterial activity against Staphylococcus aureus 29213 assessed as inhibition of bacterial growth
Enterococcus faecium [13] = experiment: Antibacterial activity against Vancomycin-resistant Enterococcus […] ATCC 29212 assessed as inhibition of bacterial growth; conditions: Enterococcus faecalis
[14] = test system: Staphylococcus saprophyticus; experiment: Antibacterial activity against Staphylococcus saprophyticus ATCC 49453 assessed as inhibition of bacterial growth
Bacillus cereus = experiment: Antibacterial activity against Bacillus cereus ATCC 11788 assessed as inhibition of bacterial growth

Row | SMILES | MIC [1] | MIC (Staphylococcus aureus [2]) | MIC (Enterococcus faecium [3]) | MIC [4] | MIC (Staphylococcus aureus [5]) | MIC (Bacillus subtilis) | MIC [6] | MIC [7] | MIC (Staphylococcus aureus [8]) | MIC (Enterococcus faecium [9]) | MIC (Staphylococcus aureus [10]) | MIC (Staphylococcus aureus [11]) | MIC (Staphylococcus aureus [12]) | MIC (Enterococcus faecium [13]) | MIC [14] | MIC (Bacillus cereus)
1 | CCC[C@@H]1NC(=O)[C@H](CCCNC(=N)N)NC(=O)[C@H](NC(=O)[C@H](CO)NC(=O)[C@@H](NC(=O)[C@H](NC(=O)[C@@H](CCC(N)=O)NC(=O)[C@H](CCCNC(=N)N)NC(=O)[C@@H](NC(=O)[C@@H](Cc2ccccc2)NC)[C@@H](C)CC)[C@@H](C)CC)[C@@H](C)CC)[C@H](C)OC(=O)[C@H]([C@@H](C)CC)NC1=O | 0.063 µg/mL (≈ 0.047 µM) | 0.125 µg/mL (≈ 0.0932 µM) | 2 µg/mL (≈ 1.49 µM) | 0.125 µg/mL (≈ 0.0932 µM) | 0.25 µg/mL (≈ 0.186 µM) | 0.063 µg/mL (≈ 0.047 µM) | 0.063 µg/mL (≈ 0.047 µM) | 0.063 µg/mL (≈ 0.047 µM) | 0.5 µg/mL (≈ 0.373 µM) | 2 µg/mL (≈ 1.49 µM) | 1 µg/mL (≈ 0.745 µM) | 0.25 µg/mL (≈ 0.186 µM) | 0.5 µg/mL (≈ 0.373 µM) | 2 µg/mL (≈ 1.49 µM) | 0.063 µg/mL (≈ 0.047 µM) | 1 µg/mL (≈ 0.745 µM)
2 | CC[C@H](C)[C@H](NC(=O)[C@@H](Cc1ccccc1)NC)C(=O)N[C@@H](CCCNC(=N)N)C(=O)N[C@H](CCC(N)=O)C(=O)N[C@@H](C(=O)N[C@H](C(=O)N[C@@H](CO)C(=O)N[C@H]1C(=O)N[C@@H](C)C(=O)N[C@@H](C2CCCCC2)C(=O)N[C@@H]([C@@H](C)CC)C(=O)O[C@H]1C)[C@@H](C)CC)[C@@H](C)CC | 0.063 µg/mL (≈ 0.0486 µM) | 0.063 µg/mL (≈ 0.0486 µM) | 0.063 µg/mL (≈ 0.0486 µM) | < 0.063 µg/mL | 0.063 µg/mL (≈ 0.0486 µM) | 0.063 µg/mL (≈ 0.0486 µM) | 0.063 µg/mL (≈ 0.0486 µM) | 0.063 µg/mL (≈ 0.0486 µM) | 0.125 µg/mL (≈ 0.0964 µM) | 0.063 µg/mL (≈ 0.0486 µM) | 0.063 µg/mL (≈ 0.0486 µM) | 0.063 µg/mL (≈ 0.0486 µM) | 0.063 µg/mL (≈ 0.0486 µM) | 0.125 µg/mL (≈ 0.0964 µM) | < 0.063 µg/mL | 0.063 µg/mL (≈ 0.0486 µM)
3 | COc1c(N2C[C@@H]3CCCN[C@@H]3C2)c(F)cc2c(=O)c(C(=O)O)cn(C3CC3)c12 [MOXIFLOXACIN] | 0.063 µg/mL (≈ 0.157 µM) | 4 µg/mL (≈ 9.96 µM) | 16 µg/mL (≈ 39.9 µM) | 0.25 µg/mL (≈ 0.623 µM) | 4 µg/mL (≈ 9.96 µM) | 0.031 µg/mL (≈ 0.0772 µM) | 0.25 µg/mL (≈ 0.623 µM) | 0.125 µg/mL (≈ 0.311 µM) | 4 µg/mL (≈ 9.96 µM) | 0.25 µg/mL (≈ 0.623 µM) | 4 µg/mL (≈ 9.96 µM) | 0.125 µg/mL (≈ 0.311 µM) | 0.063 µg/mL (≈ 0.157 µM) | 0.25 µg/mL (≈ 0.623 µM) | 0.25 µg/mL (≈ 0.623 µM) | 0.125 µg/mL (≈ 0.311 µM)
4 | CCC[C@@H]1NC(=O)[C@H](C)NC(=O)[C@H](NC(=O)[C@H](CO)NC(=O)[C@@H](NC(=O)[C@H](NC(=O)[C@@H](CCCNC(=N)N)NC(=O)[C@H](CO)NC(=O)[C@@H](NC(=O)[C@@H](Cc2ccccc2)NC)[C@@H](C)CC)[C@@H](C)CC)[C@@H](C)CC)[C@H](C)OC(=O)[C@H]([C@@H](C)CC)NC1=O | 0.063 µg/mL (≈ 0.0518 µM) | 0.063 µg/mL (≈ 0.0518 µM) | 1 µg/mL (≈ 0.823 µM) | 0.063 µg/mL (≈ 0.0518 µM) | 0.063 µg/mL (≈ 0.0518 µM) | 0.063 µg/mL (≈ 0.0518 µM) | 0.063 µg/mL (≈ 0.0518 µM) | 0.063 µg/mL (≈ 0.0518 µM) | 0.125 µg/mL (≈ 0.103 µM) | 0.5 µg/mL (≈ 0.411 µM) | 0.125 µg/mL (≈ 0.103 µM) | 0.063 µg/mL (≈ 0.0518 µM) | 0.125 µg/mL (≈ 0.103 µM) | 1 µg/mL (≈ 0.823 µM) | 0.063 µg/mL (≈ 0.0518 µM) | 0.5 µg/mL (≈ 0.411 µM)
5 | CCC[C@@H]1NC(=O)[C@H](CCCNC(=N)N)NC(=O)[C@H](NC(=O)[C@H](CO)NC(=O)[C@@H](NC(=O)[C@H](NC(=O)[C@@H](CCCNC(=N)N)NC(=O)[C@H](CO)NC(=O)[C@@H](NC(=O)[C@@H](Cc2ccccc2)NC)[C@@H](C)CC)[C@@H](C)CC)[C@@H](C)CC)[C@H](C)OC(=O)[C@H]([C@@H](C)CC)NC1=O | 0.063 µg/mL (≈ 0.0484 µM) | 0.125 µg/mL (≈ 0.0961 µM) | 2 µg/mL (≈ 1.54 µM) | 0.063 µg/mL (≈ 0.0484 µM) | 0.5 µg/mL (≈ 0.384 µM) | 0.5 µg/mL (≈ 0.384 µM) | 0.063 µg/mL (≈ 0.0484 µM) | 0.063 µg/mL (≈ 0.0484 µM) | 0.5 µg/mL (≈ 0.384 µM) | 1 µg/mL (≈ 0.769 µM) | 1 µg/mL (≈ 0.769 µM) | 0.063 µg/mL (≈ 0.0484 µM) | 0.25 µg/mL (≈ 0.192 µM) | 2 µg/mL (≈ 1.54 µM) | 0.063 µg/mL (≈ 0.0484 µM) | 1 µg/mL (≈ 0.769 µM)
